Experimental data: ChEMBL document CHEMBL1201862, “PubChem BioAssay data set” (2004)
Active and inactive are the calls of the source.

Columns and labels:
[1] = target: T1, Bcl-2-related protein A1 (Mus musculus, UniProt Q07440); assay: Bfl-1 binding inhibitors, SAR follow-up, biochemical, fluorescence polarization (AID 1070)
T1 sequence (Q07440 whole entry): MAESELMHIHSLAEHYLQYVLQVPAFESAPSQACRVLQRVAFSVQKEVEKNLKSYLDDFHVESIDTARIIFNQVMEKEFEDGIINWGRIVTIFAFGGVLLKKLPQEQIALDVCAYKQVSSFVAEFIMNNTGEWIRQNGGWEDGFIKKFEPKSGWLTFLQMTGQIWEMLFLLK

[2] = target: Glyceraldehyde-3-phosphate dehydrogenase (Homo sapiens, UniProt P04406)
[3] = target: T1, Bcl-2-related protein A1; assay: Bfl-1 inhibitors blocking BH3 peptide binding, confirmation, biochemical, TR-FRET, mouse Bfl-1 (AID 621);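 also: TR-FRET binding of GST-Bfl-1 to FITC-labelled Bid peptide via terbium antibody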
[4] = target: Cytochrome P450 2D6 (Homo sapiens, UniProt P10635);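 also: CYP2D6 member of a cytochrome P450 panel assay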
[5] = target: SUMO-activating enzyme (Homo sapiens, UniProt Q9UBT2); assay: inhibitors of in vitro SUMOylation cascade, primary screen, biochemical, HTRF, uHTS (AID 2006); type: protein-complex assay
[6] = target: Protein-tyrosine kinase 2-beta (Homo sapiens, UniProt Q14289);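 also: potency of inhibitors of PYK2 kinase phosphorylation of poly-GT substrate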
[7] = target: T2, Estrogen receptor (Homo sapiens, UniProt P03372);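 also: potency for inhibiting coactivator peptide recruitment to the receptor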
T2 sequence (P03372 whole entry): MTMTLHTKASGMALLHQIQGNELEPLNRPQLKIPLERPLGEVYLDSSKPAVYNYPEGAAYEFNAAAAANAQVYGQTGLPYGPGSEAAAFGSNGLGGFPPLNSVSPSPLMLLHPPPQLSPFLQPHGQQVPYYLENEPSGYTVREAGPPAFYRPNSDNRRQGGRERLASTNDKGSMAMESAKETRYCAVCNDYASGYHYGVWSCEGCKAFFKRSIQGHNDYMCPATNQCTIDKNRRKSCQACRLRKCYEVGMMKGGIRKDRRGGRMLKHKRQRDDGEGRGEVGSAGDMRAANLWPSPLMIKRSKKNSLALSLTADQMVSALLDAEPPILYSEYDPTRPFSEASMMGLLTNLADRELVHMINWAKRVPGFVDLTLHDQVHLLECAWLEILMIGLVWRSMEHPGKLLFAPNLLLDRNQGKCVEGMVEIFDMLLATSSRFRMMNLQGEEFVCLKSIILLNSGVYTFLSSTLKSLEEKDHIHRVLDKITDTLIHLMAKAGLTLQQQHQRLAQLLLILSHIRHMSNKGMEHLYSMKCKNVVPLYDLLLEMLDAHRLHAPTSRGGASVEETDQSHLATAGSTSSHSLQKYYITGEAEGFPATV

[8] = target: T1, Bcl-2-related protein A1; assay: Bfl-1 inhibitors, primary screen, biochemical, fluorescence polarization, FITC-Bid, mouse (AID 432)
[9] = inhibitors of clade B AD8 Env fusion, dose response, cell-based, cherry-pick (AID 652062); type: functional;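 also: luciferase signal from cell-cell fusion driven by HIV-1 clade B AD8 Env; potency is for inhibitors of fusion seen as a drop in luminescence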
[10] = control 3'UTR Renilla luciferase suppression, dose response, counter-screen for Shn3 inhibitor project, cell-based, Clone20-Shn3RL, cherry-picked (AID 624133); type: functional
[11] = target: Sphingosine 1-phosphate receptor 2 (Homo sapiens, UniProt O95136); assay: Dose Response Cell Based Assay for Antagonists of the S1P2 Receptor. [Related pubchem assays: 856, 736 ]; type: functional
[12] = CEM21 lymphoblast cell cytotoxicity, dose response, cytotoxicity control for viral fusion inhibitor project, CellTiter-Glo luminescence, cherry-picked (AID 652042); type: functional, cell-based;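 also: potency for signal decrease meaning cytotoxicity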
[13] = inhibitors of HIV Env-driven cell fusion, dose response, cherry-pick (AID 652057); type: functional, cell-based
[14] = reduction of endogenous Shn3 mRNA, dose response, qPCR, Clone20 cells, cherry-pick (AID 743415); type: functional, cell-based
[15] = reduction of Shn3 3'UTR firefly luciferase signal, dose response, Schnurri-3 inhibitor project, cell-based, Clone20 osteoblasts, cherry-pick, set 2 (AID 720490); type: functional;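 also: actives lower the luminescence signal as inhibitors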
[16] = target: COUP transcription factor 2 (Homo sapiens, UniProt P24468); assay: Luminescence-based cell-based high throughput dose response assay to identify inhibitors of COUP-TFII (NR2F2).; type: functional;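 also: HEK293 cells transiently cotransfected with COUP-TFII expression vector and reporter; luciferase reporter luminescence driven by COUP-TFII from the pX2-168 reporter plasmid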
[17] = HepG2 cell cytotoxicity, dose response, cytotoxicity control for Shn3 inhibitor project, CellTiter-Glo, cherry-picked (AID 624134); type: functional, cell-based
[18] = target: Protein Wnt-3a (Mus musculus, UniProt P27467); assay: Wnt3a-driven reporter signaling inhibition, dose response, selectivity assay for Gli-SUFU antagonist project, Wnt-LIGHT cells, luminescence (AID 651570); type: functional; details: read-out: IC50_Mean;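 also: Wnt-LIGHT reporter cells stimulated with conditioned medium from Wnt3a-producing cells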
[19] = target: Neurotensin receptor type 1 (Homo sapiens, UniProt P30989); type: functional;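 also: Image-based confirmatory dose-response assay measuring agonist activity at NTR1; NTR1-expressing U2OS osteosarcoma cells imaged for beta-arrestin GFP spot formation; agonist potency where compounds increase beta-arrestin recruitment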
[20] = Shn3 3'UTR reporter inhibitors, dose response, cell-based, Clone20 osteoblasts, firefly luciferase, cherry-picked (AID 624132); type: functional;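 also: firefly luciferase luminescence from reporter carrying the Shn3 3'UTR in osteoblasts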
[21] = target: 5-hydroxytryptamine receptor 1A (Homo sapiens, UniProt P08908); type: functional
[22] = system: Vero; assay: host cell cytotoxicity of antiviral hits, dose response, cytotoxicity control for West Nile virus antiviral project, secondary assay (AID 1650); type: functional; details: Chlorocebus sabaeus
[23] = growth suppression of beta-catenin-knockout colon cells, dose response, cell-based, HCT116, human colon tumor (AID 1045); type: functional;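 also: HCT116 colon tumor cells with beta catenin knocked out; cells exposed to compound for 60 hours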
[24] = growth suppression of PTEN-null colon cells, dose response, cell-based, HCT116 PTEN knockout (AID 1047); type: functional;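 also: HCT116 colon tumor cells with PTEN knocked out; cells exposed to compound for 60 hours before readout; potency for loss of cell viability measured by luminescence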
[25] = target: Cytochrome P450 2C19 (Homo sapiens, UniProt P33261); assay: qHTS Assay for Inhibitors and Substrates of Cytochrome P450 2C19. [Related pubchem assays: 410 ]; type: ADME; details: read-out: Potency
[26] = target: Genome polyprotein (Hepatitis C virus, UniProt Q2Q167); assay: HCV core protein dimerization inhibitors, dose response, biochemical, TR-FRET (AID 2159); set-up: species or system Hepacivirus hominis;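 also: blocks dimerization of HCV core protein measured by TR-FRET between tagged core106 pairs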
[27] = target: T3, Neuropeptides B/W receptor type 1 (Homo sapiens, UniProt P48145); assay: Fluorescence-based dose response cell-based high throughput screening assay to identify antagonists of the G-protein coupled receptor 7 (GPR7). [Related pubchem assays: 1952 (Screening assay (GPR7 antagonists).), 1880 (Summary AID.)]; type: functional
T3 sequence (P48145 whole entry): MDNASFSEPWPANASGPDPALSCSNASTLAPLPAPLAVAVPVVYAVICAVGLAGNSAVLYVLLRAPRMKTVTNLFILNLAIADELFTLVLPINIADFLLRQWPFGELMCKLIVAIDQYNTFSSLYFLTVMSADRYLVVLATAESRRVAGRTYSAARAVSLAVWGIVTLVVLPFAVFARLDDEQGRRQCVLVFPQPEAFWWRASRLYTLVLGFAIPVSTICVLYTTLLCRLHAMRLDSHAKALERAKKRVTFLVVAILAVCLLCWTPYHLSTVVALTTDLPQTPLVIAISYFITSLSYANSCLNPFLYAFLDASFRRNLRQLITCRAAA

[28] = target: Melanin-concentrating hormone receptor 1 (Homo sapiens, UniProt Q99705); assay: Fluorescence-based counterscreen for antagonists of the G-protein coupled receptor 7 (GPR7): cell-based high throughput dose response assay to identify antagonists of the melanin-concentrating hormone receptor 1 (MCHR1).; type: functional
[29] = inhibitors of firefly luciferase expression or activity, dose response, H4 neuroglioma cells, luminescence (AID 1990); type: functional, cell-based
[30] = Luminescence Cell-Based Dose Response HTS to Identify Inhibitors of 5'UTR Stem-Loop Driven Prion Protein mRNA Translation in H4 Neuroglioblastoma Cells. [Related pubchem assays: 1827 (Project Summary), 1813 (Primary HTS)]; type: functional
[31] = Luminescence-based dose response cell-based high throughput screening assay for cytotoxic compounds using the IEC-6 intestinal epithelial cell line. [Related pubchem assays: 1858 (Summary AID.), 1825 (Counterscreen.), 1907 (Confirmation screen.)]; type: functional
[32] = inhibitors of SNCA 5'UTR-driven reporter translation, confirmation, H4 neuroglioma cells, luminescence (AID 1988); type: functional, cell-based

Cytochrome P450 2D6, sequence (P10635 whole entry): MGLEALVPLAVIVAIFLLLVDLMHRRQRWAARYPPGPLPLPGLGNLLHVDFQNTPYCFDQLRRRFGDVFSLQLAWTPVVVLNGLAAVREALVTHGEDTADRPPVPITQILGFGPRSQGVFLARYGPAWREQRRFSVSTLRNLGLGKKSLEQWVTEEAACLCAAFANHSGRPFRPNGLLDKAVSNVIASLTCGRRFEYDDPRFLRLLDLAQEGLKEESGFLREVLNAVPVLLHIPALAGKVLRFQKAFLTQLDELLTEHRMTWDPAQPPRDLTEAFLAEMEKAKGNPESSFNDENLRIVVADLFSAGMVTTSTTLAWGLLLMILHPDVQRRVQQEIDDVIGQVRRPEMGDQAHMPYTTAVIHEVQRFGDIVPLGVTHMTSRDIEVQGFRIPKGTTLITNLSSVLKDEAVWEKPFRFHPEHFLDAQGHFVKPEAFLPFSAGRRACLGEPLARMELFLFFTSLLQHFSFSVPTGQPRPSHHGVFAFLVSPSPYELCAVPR
SUMO-activating enzyme, sequence (Q9UBE0 whole entry): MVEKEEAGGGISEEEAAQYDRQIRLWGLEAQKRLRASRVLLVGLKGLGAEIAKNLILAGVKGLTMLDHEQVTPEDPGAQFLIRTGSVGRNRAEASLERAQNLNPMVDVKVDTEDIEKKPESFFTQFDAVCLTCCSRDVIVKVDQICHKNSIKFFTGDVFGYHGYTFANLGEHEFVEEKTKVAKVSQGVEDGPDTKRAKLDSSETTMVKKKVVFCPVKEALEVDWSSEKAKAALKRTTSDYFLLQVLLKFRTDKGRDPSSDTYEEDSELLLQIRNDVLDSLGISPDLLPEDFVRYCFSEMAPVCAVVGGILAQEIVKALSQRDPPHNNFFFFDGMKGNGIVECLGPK
SUMO-activating enzyme, sequence (Q9UBT2 whole entry): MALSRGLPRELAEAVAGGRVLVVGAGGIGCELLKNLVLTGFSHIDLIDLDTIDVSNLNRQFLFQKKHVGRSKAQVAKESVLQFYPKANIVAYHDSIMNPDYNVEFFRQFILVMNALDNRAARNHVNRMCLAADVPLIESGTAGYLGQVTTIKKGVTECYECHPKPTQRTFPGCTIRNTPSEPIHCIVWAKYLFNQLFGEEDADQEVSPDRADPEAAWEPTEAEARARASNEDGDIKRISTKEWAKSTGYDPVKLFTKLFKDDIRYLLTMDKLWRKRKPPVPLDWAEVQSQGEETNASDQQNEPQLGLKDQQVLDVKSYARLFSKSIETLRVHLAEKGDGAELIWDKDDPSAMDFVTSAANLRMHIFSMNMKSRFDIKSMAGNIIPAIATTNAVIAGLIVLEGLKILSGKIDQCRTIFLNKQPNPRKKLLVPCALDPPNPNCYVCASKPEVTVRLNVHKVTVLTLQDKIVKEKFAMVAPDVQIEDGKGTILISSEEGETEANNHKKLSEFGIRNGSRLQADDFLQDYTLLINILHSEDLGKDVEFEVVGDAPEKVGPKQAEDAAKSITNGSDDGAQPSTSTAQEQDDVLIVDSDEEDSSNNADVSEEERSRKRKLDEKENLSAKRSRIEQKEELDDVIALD
Protein-tyrosine kinase 2-beta, sequence (Q14289 whole entry): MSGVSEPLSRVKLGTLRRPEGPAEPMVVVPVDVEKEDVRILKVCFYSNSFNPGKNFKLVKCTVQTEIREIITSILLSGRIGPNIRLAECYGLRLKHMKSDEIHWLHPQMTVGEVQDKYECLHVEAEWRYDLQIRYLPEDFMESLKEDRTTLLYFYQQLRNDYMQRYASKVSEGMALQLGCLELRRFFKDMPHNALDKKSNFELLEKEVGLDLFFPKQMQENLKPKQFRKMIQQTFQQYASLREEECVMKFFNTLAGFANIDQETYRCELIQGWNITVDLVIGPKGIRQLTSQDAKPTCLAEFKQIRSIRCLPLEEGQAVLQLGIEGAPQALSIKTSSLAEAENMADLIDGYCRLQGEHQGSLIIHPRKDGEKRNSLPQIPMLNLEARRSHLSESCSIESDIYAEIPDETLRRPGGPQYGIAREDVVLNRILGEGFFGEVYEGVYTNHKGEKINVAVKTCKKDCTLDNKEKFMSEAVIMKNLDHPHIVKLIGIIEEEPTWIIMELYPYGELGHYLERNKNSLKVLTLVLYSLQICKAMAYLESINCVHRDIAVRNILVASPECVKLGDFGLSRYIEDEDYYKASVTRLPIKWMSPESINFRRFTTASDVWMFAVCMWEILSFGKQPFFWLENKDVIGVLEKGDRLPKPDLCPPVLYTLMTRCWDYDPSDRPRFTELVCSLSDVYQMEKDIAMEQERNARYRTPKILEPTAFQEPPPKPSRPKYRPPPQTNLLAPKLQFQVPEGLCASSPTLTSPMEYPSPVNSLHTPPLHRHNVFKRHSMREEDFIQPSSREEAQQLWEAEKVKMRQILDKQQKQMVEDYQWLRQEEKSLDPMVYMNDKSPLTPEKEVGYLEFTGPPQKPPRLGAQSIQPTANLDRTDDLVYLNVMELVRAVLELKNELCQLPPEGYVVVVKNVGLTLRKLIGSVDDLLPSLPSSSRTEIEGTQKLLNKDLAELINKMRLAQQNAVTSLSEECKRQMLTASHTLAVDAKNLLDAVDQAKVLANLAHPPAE
Melanin-concentrating hormone receptor 1, sequence (Q99705 whole entry): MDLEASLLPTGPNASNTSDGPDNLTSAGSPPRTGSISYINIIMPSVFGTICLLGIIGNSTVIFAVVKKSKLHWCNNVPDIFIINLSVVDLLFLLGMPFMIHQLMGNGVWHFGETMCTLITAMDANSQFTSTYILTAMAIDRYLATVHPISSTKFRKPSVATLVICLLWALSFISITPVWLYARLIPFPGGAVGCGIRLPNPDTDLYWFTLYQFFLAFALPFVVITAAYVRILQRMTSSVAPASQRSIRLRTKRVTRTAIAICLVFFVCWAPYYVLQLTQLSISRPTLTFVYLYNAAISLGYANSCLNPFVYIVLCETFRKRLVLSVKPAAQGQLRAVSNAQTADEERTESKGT
5-hydroxytryptamine receptor 1A, sequence (P08908 whole entry): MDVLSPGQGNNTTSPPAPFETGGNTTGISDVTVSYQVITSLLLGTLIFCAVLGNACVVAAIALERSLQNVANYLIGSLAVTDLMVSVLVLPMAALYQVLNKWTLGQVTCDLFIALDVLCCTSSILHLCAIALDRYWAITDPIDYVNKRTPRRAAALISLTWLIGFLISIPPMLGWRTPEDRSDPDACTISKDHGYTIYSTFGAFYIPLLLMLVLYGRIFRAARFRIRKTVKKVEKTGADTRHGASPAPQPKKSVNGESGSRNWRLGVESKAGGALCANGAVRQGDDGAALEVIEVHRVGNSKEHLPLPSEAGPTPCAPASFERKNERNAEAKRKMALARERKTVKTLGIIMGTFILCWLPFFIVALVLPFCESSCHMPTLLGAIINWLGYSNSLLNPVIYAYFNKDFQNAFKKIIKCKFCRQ
Cytochrome P450 2C19, sequence (P33261 whole entry): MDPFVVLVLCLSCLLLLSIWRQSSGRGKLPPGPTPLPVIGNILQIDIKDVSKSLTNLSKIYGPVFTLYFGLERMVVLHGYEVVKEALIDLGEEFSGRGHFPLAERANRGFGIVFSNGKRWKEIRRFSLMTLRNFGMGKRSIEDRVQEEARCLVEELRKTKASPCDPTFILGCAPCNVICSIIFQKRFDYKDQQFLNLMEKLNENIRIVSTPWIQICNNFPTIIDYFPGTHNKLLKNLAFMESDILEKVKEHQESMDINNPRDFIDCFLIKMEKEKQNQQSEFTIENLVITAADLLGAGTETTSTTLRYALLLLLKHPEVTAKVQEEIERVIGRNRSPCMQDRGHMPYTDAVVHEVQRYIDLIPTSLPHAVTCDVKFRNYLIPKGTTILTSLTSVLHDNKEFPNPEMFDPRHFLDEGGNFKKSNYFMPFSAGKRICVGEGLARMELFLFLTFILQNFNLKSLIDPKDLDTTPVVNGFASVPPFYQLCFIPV
Glyceraldehyde-3-phosphate dehydrogenase, sequence (P04406 whole entry): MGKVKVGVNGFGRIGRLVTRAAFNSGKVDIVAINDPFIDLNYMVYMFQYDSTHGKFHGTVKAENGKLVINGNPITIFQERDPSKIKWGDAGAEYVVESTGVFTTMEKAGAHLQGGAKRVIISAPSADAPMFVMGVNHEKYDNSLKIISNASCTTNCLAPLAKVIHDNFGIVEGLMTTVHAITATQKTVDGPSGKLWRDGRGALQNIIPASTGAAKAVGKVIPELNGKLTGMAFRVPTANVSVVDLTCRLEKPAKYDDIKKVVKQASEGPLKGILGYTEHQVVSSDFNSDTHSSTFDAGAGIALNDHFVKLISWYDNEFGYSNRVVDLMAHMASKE
Neurotensin receptor type 1, sequence (P30989 whole entry): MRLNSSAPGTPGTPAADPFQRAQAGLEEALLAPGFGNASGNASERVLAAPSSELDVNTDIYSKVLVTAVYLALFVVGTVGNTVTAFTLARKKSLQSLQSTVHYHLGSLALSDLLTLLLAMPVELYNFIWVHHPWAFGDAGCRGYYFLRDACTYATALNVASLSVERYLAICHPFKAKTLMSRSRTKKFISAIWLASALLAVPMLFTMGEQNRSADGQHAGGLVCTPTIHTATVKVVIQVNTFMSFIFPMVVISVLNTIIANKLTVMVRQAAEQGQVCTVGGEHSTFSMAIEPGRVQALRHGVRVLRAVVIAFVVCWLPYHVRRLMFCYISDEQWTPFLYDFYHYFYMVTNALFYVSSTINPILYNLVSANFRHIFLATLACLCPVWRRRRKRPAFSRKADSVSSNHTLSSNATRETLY
Genome polyprotein, sequence (Q2Q167 whole entry): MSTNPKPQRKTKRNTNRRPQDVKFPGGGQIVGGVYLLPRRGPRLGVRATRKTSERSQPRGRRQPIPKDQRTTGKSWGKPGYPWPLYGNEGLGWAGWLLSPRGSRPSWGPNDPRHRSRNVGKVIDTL

For `CN1CCN(C2=C(Cl)C(=O)N(c3cccc(Cl)c3)C2=O)CC1`, the IC50 [1] was 2.15 µM (active), the IC50 [2] was > 100 µM (not active) and the IC50 [3] was 1.17 µM (active).
For `O=C(Nc1ccc(-n2nncc2-c2ccco2)cc1)c1cc2ccccc2oc1=O`, the AC50 [4] was 2.51 µM (inconclusive), the IC50 [5] was 14.7 µM (active) and the IC50 [6] was 1.9 µM (active). For the same compound, the IC50 [7] was 40.6 µM (not active).
With `O=C(NC12CC3CC(CC(C3)C1)C2)c1ccccc1O` the IC50 [8] was > 100 µM (not active) and the IC50 [3] was > 100 µM (not active).
In the case of `Fc1ccc(-n2nnnc2-c2cnc(-c3cccs3)nc2C(F)(F)F)cc1`, the AC50 [9] is reported as 40.4 µM (active), the AC50 [10] is reported as 13.3 µM (active) and the IC50 [11] is reported as 5.2 µM (active). For the same compound, the AC50 [12] was 18.8 µM (active), the AC50 [13] was 9.88 µM (active) and the AC50 [14] was 24.4 µM (active). For the same compound, the AC50 [15] was 2.6 µM (active), the IC50 [16] was 12.8 µM (inactive) and the AC50 [17] was 55 µM (active). The IC50 [18] was 5.83 µM (active), the EC50 [19] was 9.77 µM (active) and the AC50 [20] was 4.44 µM (active).
For `O=C(NCc1ccccc1)NC1(C(=O)N2CCCC2)CCCCC1`, the EC50 [21] was > 50 µM (not active).
For `C=CCn1c(SCC(=O)c2[nH]c(C)c(C(=O)OCC)c2C)nc2scc(-c3ccccc3)c2c1=O`, the CC50 [22] was > 100 µM (active), the EC50 [23] was 3.85 µM (active) and the EC50 [24] was 5.36 µM (active).
For `OCC1OC(c2ccccc2)C=CC1Oc1cc(Cl)cc(Cl)c1` (stereo not drawn), the AC50 [25] was 1.26 µM (inconclusive).
With `CCc1nnc(NCC(=O)N2CCc3ccccc32)s1` the IC50 [26] was > 49.8 µM (not active).
For `COc1ccc(S(=O)(=O)N(CC(=O)Nc2ccc(S(=O)(=O)N3CCOCC3)cc2)Cc2ccc(F)cc2)cc1`, the IC50 [27] was > 43.8 µM (not active) and the IC50 [28] was > 43.8 µM (not active).
In the case of `CC(C)NCC(O)Cn1c2c(c3ccccc31)CCc1c-2cnn1-c1ccccc1` (stereo not drawn), the EC50 [29] is reported as 8.19 µM (active), the EC50 [30] is reported as 10.7 µM (active) and the IC50 [31] is reported as 3.51 µM (active). The EC50 [32] was 6.18 µM (active).
